Toxic doses and inconclusive results are not listed. Rule as the data show it: active = T/C of 150% or more; inactive = T/C below 125%.
Test system: L1210 leukemia ip in BDF1 mice, survival T/C
Test: NCI In Vivo Anticancer Drug Screen. Data for tumor model L1210 Leukemia (intraperitoneal) in B6D2F1 (BDF1) mice
Conditions: endpoint: mean survival time, higher = longer survival
Summary of the method: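 Transplantable tumor model; survival measured in treated vs vehicle control mice. Value = treated/control.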

[1] = dose: 100.0 mg/kg/injection, schedule: Q01DX009 (ip), vehicle: other
[2] = dose: 200.0 mg/kg/injection, schedule: Q01DX009 (ip), vehicle: other
[3] = dose: 400.0 mg/kg/injection, schedule: Q01DX009 (ip), vehicle: other
[4] = dose: 100.0 mg/kg/injection, schedule: Q01DX009 (ip), vehicle: saline with Tween-80
[5] = dose: 100.0 mg/kg/injection, schedule: Q04DX003 (ip), vehicle: saline with Tween-80
[6] = dose: 200.0 mg/kg/injection, schedule: Q01DX009 (ip), vehicle: saline with Tween-80
[7] = dose: 200.0 mg/kg/injection, schedule: Q04DX003 (ip), vehicle: saline with Tween-80
[8] = dose: 400.0 mg/kg/injection, schedule: Q04DX003 (ip), vehicle: saline with Tween-80
[9] = dose: 100.0 mg/kg/injection, schedule: Q01DX001 (ip), vehicle: saline
[10] = dose: 200.0 mg/kg/injection, schedule: Q01DX001 (ip), vehicle: saline
[11] = dose: 400.0 mg/kg/injection, schedule: Q01DX001 (ip), vehicle: saline
[12] = dose: 100.0 mg/kg/injection, schedule: Q01DX009 (ip), vehicle: saline
[13] = dose: 100.0 mg/kg/injection, schedule: Q04DX003 (ip), vehicle: saline
[14] = dose: 200.0 mg/kg/injection, schedule: Q01DX009 (ip), vehicle: saline
[15] = dose: 200.0 mg/kg/injection, schedule: Q04DX003 (ip), vehicle: saline
[16] = dose: 400.0 mg/kg/injection, schedule: Q01DX009 (ip), vehicle: saline
[17] = dose: 100.0 mg/kg/injection, schedule: Q04DX003 (ip), vehicle: Klucel (hydroxypropylcellulose) (HPC)
[18] = dose: 200.0 mg/kg/injection, schedule: Q04DX003 (ip), vehicle: Klucel (hydroxypropylcellulose) (HPC)
[19] = dose: 400.0 mg/kg/injection, schedule: Q04DX003 (ip), vehicle: Klucel (hydroxypropylcellulose) (HPC)

Measured: T/C

CCCCCCCCCCCCCCCCCCNC(=O)Nc1ccccc1
inactive: [1] 101 % of control | [2] 100 % of control | [3] 97 % of control

CC12C=CC(CC1)C2O (stereo not given)
inactive: [4] 105 % of control | [5] 100 % of control | [6] 96 % of control | [7] 96 % of control | [8] 98 % of control

CNC(=S)N/N=C(\c1ccccc1)c1ccccn1
inactive: dose: 100.0 mg/kg/injection, schedule: Q01DX001 (ip), vehicle: saline with Tween-80 95 % of control | [4] 100 % of control | [5] 104 % of control | dose: 200.0 mg/kg/injection, schedule: Q01DX001 (ip), vehicle: saline with Tween-80 106 % of control | [6] 102 % of control | [7] 95 % of control | dose: 400.0 mg/kg/injection, schedule: Q01DX001 (ip), vehicle: saline with Tween-80 104 % of control | dose: 400.0 mg/kg/injection, schedule: Q01DX009 (ip), vehicle: saline with Tween-80 102 % of control | [8] 98 % of control

CC(C)c1ccc(N=Nc2ccc(N(C)C)cc2)cc1
inactive: [5] 95 % of control | [7] 95 % of control | [8] 94 % of control

N#CCC(C#N)N1CCCCC1 (stereo not given)
inactive: dose: 0.39 mg/kg/injection, schedule: Q01DX009 (ip), vehicle: other 100 % of control | dose: 0.78 mg/kg/injection, schedule: Q01DX009 (ip), vehicle: other 96 % of control | dose: 1.56 mg/kg/injection, schedule: Q01DX009 (ip), vehicle: other 94 % of control | dose: 3.12 mg/kg/injection, schedule: Q04DX003 (ip), vehicle: other 94 % of control | dose: 6.25 mg/kg/injection, schedule: Q04DX003 (ip), vehicle: other 100 % of control | dose: 12.5 mg/kg/injection, schedule: Q01DX001 (ip), vehicle: other 103 % of control | dose: 12.5 mg/kg/injection, schedule: Q04DX003 (ip), vehicle: other 100 % of control

COc1cc(C(=O)Cl)cc(OC)c1OC
inactive: dose: 18.75 mg/kg/injection, schedule: Q04DX003 (ip), vehicle: saline with Tween-80 107 % of control | dose: 37.5 mg/kg/injection, schedule: Q04DX003 (ip), vehicle: saline with Tween-80 102 % of control | dose: 75.0 mg/kg/injection, schedule: Q04DX003 (ip), vehicle: saline with Tween-80 95 % of control

Oc1cccc(-c2nnc(-c3cccc(O)c3)nn2)c1
inactive: [9] 101 % of control | [10] 96 % of control | [11] 102 % of control

CCOC(=O)c1c(NC(=O)CCC(=O)Nc2sc(C)c(C)c2C(=O)OCC)sc(C)c1C
inactive: dose: 50.0 mg/kg/injection, schedule: Q04DX003 (ip), vehicle: saline with Tween-80 88 % of control | dose: 100.0 mg/kg/injection, schedule: Q01DX009 (ip), vehicle: Klucel (hydroxypropylcellulose) (HPC) 90 % of control | [5] 98 % of control | [7] 90 % of control | dose: 400.0 mg/kg/injection, schedule: Q01DX009 (ip), vehicle: Klucel (hydroxypropylcellulose) (HPC) 88 % of control | [8] 88 % of control

CCCCCCCCCC[n+]1cccc(C(N)=O)c1
inactive: dose: 5.0 mg/kg/injection, schedule: Q04DX003 (ip), vehicle: saline 93 % of control | dose: 10.0 mg/kg/injection, schedule: Q04DX003 (ip), vehicle: saline 96 % of control | dose: 20.0 mg/kg/injection, schedule: Q04DX003 (ip), vehicle: saline 96 % of control

CCN(CC)CCNCCO
inactive: [12] 89 % of control | [13] 95 % of control | [14] 94 % of control | [15] 92 % of control | [16] 89 % of control | dose: 400.0 mg/kg/injection, schedule: Q04DX003 (ip), vehicle: saline 92 % of control

COc1ccc(C)cc1NC(=O)OCCOc1cc(C)c(Cl)c(C)c1
inactive: dose: 50.0 mg/kg/injection, schedule: Q01DX009 (ip), vehicle: saline with Tween-80 90 % of control | [4] 87 % of control | [6] 87 % of control

Nc1ncc(CBr)c(N)n1
inactive: [13] 97 % of control | [15] 96 % of control

COC(=O)c1ccc(Cn2cnc3ncnc(Cl)c32)cc1
inactive: [17] 92 % of control | [18] 91 % of control | [19] 105 % of control

CSc1cc(=O)n(C2OC(COC(C)=O)C(OC(C)=O)C2OC(C)=O)c(=O)[nH]1 (stereo not given)
inactive: dose: 100.0 mg/kg/injection, schedule: Q01DX005 (ip), vehicle: saline 95 % of control | dose: 200.0 mg/kg/injection, schedule: Q01DX005 (ip), vehicle: saline 97 % of control

CCOC(=O)/C=C(\C)N1CCCCC1
inactive: [12] 104 % of control | [14] 100 % of control

O=C(Nc1ccc(NC2=NCCN2)cc1)c1cc(Cl)cc(C(=O)Nc2ccc(NC3=NCCN3)cc2)c1
inactive: dose: 7.5 mg/kg/injection, schedule: Q01DX010 (ip), vehicle: saline 100 % of control | dose: 15.0 mg/kg/injection, schedule: Q01DX010 (ip), vehicle: saline 95 % of control | dose: 15.0 mg/kg/injection, schedule: Q01DX Z (ip), vehicle: saline 105 % of control | dose: 30.0 mg/kg/injection, schedule: Q01DX Z (ip), vehicle: saline 105 % of control

CCCNC(C)=O
inactive: [12] 102 % of control | [14] 101 % of control | [16] 91 % of control

O=C(O)C1CCC(CC2CCC2)CC1 (stereo not given)
inactive: dose: 100.0 mg/kg/injection, schedule: Q01DX001 (ip), vehicle: Klucel (hydroxypropylcellulose) (HPC) 95 % of control | [17] 98 % of control | dose: 200.0 mg/kg/injection, schedule: Q01DX001 (ip), vehicle: Klucel (hydroxypropylcellulose) (HPC) 100 % of control | [18] 98 % of control | dose: 400.0 mg/kg/injection, schedule: Q01DX001 (ip), vehicle: Klucel (hydroxypropylcellulose) (HPC) 92 % of control | [19] 95 % of control

c1ccc(CC2NC2c2ccccc2)cc1 (stereo not given)
inactive: dose: 100.0 mg/kg/injection, schedule: Q04DX002 (ip), vehicle: Klucel (hydroxypropylcellulose) (HPC) 92 % of control | [17] 96 % of control | dose: 200.0 mg/kg/injection, schedule: Q04DX002 (ip), vehicle: Klucel (hydroxypropylcellulose) (HPC) 98 % of control | [18] 96 % of control | [19] 103 % of control

NCC1OC(OC2C(N)CC(N)C(O)C2O)C(NC(=O)c2ccccc2)C(O)C1O (stereo not given)
inactive: [17] 91 % of control | [18] 96 % of control | [19] 91 % of control

CCCCOc1cc(C(=O)NCCN(CC)CC)c2ccccc2n1
inactive: dose: 6.25 mg/kg/injection, schedule: Q04DX003 (ip), vehicle: saline 98 % of control | dose: 12.5 mg/kg/injection, schedule: Q04DX003 (ip), vehicle: saline 98 % of control | dose: 25.0 mg/kg/injection, schedule: Q04DX003 (ip), vehicle: saline 107 % of control

CC[C@H](CC[C@@H](C)[C@H]1CC[C@H]2[C@@H]3CC=C4C[C@@H](OC(=O)CN5CCNCC5)CC[C@]4(C)[C@H]3CC[C@]12C)C(C)C
inactive: dose: 100.0 mg/kg/injection, schedule: Q01DX001 (ip), vehicle: water 98 % of control | dose: 100.0 mg/kg/injection, schedule: Q01DX009 (ip), vehicle: water 105 % of control | dose: 100.0 mg/kg/injection, schedule: Q04DX003 (ip), vehicle: water 100 % of control | dose: 200.0 mg/kg/injection, schedule: Q01DX001 (ip), vehicle: water 98 % of control | dose: 200.0 mg/kg/injection, schedule: Q01DX009 (ip), vehicle: water 89 % of control | dose: 200.0 mg/kg/injection, schedule: Q04DX003 (ip), vehicle: water 100 % of control | dose: 400.0 mg/kg/injection, schedule: Q01DX001 (ip), vehicle: water 91 % of control | dose: 400.0 mg/kg/injection, schedule: Q04DX003 (ip), vehicle: water 98 % of control

Cc1cccn(C)c1=O
inactive: [9] 95 % of control | [10] 101 % of control | [11] 96 % of control

Nc1nc(Cl)c(Br)c(=O)[nH]1
inactive: dose: 25.0 mg/kg/injection, schedule: Q01DX Z (ip), vehicle: methylcellulose (MC) 98 % of control | dose: 50.0 mg/kg/injection, schedule: Q01DX Z (ip), vehicle: methylcellulose (MC) 89 % of control

C[Si](C)(C)Oc1ccc(O[Si](C)(C)C)cc1
inactive: [1] 92 % of control | [2] 94 % of control | [3] 101 % of control
